Data on seven molecules can be found in publication PMC9781652, “Dinuclear Iron Complexes of Iminopyridine-Based Ligands as Selective Cytotoxins for Tumor Cells and Inhibitors of Cancer Cell Migration” (Pharmaceutics, 2022).

The structures appear in SMILES notation.

Assay [1] deals with NCI-H460 human lung carcinoma cells. Kind of assay: Cell proliferation assay (MTT), NCI-H460. It counts as cell-based. The conditions noted are these: for IC50: 72 h exposure, MTT, mean ± SE; for SI NCI-H460 (selectivity index): ratio IC50 CCD-18Co / IC50 NCI-H460. As to the method: (§1) Cells were seeded into 96-well plates at densities of 1500 cells per well for OVCAR-8, 1900 for NCI-H460, and 4000 for CCD-18Co. After 24 h of incubation, they were treated for 72 h with different concentrations of the compounds (concentration range: 0.01 to 6 μM for OVCAR-8; 0.05 to 2 μM for NCI-H460; and 0.07 to 70 μM for CCD-18Co cells). When indicated, cells were also incubated with 30 µM of the ROS scavenger Manganese (III) 5,10,15,20-tetrakis (4-benzoic acid) porphyrin (MnTBAP) (Calbiochem, San Diego, CA, USA). Cell viability was measured using the MTT assay as previously described. The IC50 value corresponds to the concentration of the assayed compound that is required to inhibit the cell proliferation by 50%, and was calculated by linear interpolation from the obtained growth curves. All data are reported as the mean ± standard error (SE) calculated from at least three independent experiments with three replicates in each.

In assay [2] the test system is OVCAR-8 human ovarian carcinoma cells. Kind of assay: Cell proliferation assay (MTT), OVCAR-8. As to conditions: for IC50: 72 h exposure, MTT, mean ± SE; for SI OVCAR-8 (selectivity index): ratio IC50 CCD-18Co / IC50 OVCAR-8. It counts as cell-based. Here is the method:
as §1

Assay [3] has as its system CCD-18Co human colon fibroblasts. Kind of assay: Cell proliferation assay (MTT), non-tumor CCD-18Co. It counts as cell-based. The conditions noted are these: non-tumor cells, 72 h exposure, mean ± SE. As to the method: as §1
Assay [4] concerns supercoiled pUC18 DNA. Kind of assay: DNA interaction analysis by agarose gel electrophoresis. It is filed as biochemical. As to conditions: 24 h, 37 °C; for Effect on pUC18 DNA in the presence of H2O2 at the highest concentrations: with H2O2. As to the method: The interaction of DNA with the compounds was monitored in an agarose gel electrophoresis as previously described. […] Two other samples were included in the assays: a sample of pUC18 DNA alone as negative control and a sample of pUC18 DNA with 5 µg/mL cisplatin for comparison purposes. […] Gels were stained with ethidium bromide (1 µg/mL in TBE) for 15 min and DNA bands were visualized under UV light.

One may read the IC50 as the concentration that gives 50% inhibition. With `N.N.O=C([O-])C1(C(=O)[O-])CCC1.[Pt+2]` [Carboplatin, carboplatin, reference compound], in assay [1], 12800 ± 2230 nM corresponded to half-maximal inhibition (IC50) and the “SI NCI-H460 (selectivity index)” value was 18.8. Besides, in assay [2], the IC50 was found to be 110000 ± 4200 nM and the “SI OVCAR-8 (selectivity index)” value was found to be 2.1. Further, in assay [3], inhibition was half-maximal at 240000 ± 25200 nM (IC50).

Consider `N.N.[Cl][Pt][Cl]` [Cisplatin, cisplatin, reference compound], for which, in assay [4] (25-100 µM compounds (cisplatin 5 µg/mL), no H2O2), the “Interaction with pUC18 DNA in the absence of H2O2” value was “migration of the CCC form decreases until it co-migrates with the OC form”. Also, the concentration for half-maximal inhibition (IC50) stood at 1010 ± 140 nM in assay [1], 6910 ± 1210 nM in assay [2] and 31200 ± 5760 nM in assay [3]. The “SI OVCAR-8 (selectivity index)” value in assay [2] turned out to be 4.5.

In the case of `CC#N.CC#N.CC#N.CC#N.Cc1cc(N=Cc2ccccn2)c2c(c1)C1CC(O2)Oc2c(N=Cc3ccccn3)cc(C)cc21.Cc1cc(N=Cc2ccccn2)c2c(c1)C1CC(O2)Oc2c(N=Cc3ccccn3)cc(C)cc21.F[B-](F)(F)F.F[B-](F)(F)F.F[B-](F)(F)F.F[B-](F)(F)F.[Fe+2].[Fe+2]` [Compound 7, [Fe21_2(CH3CN)4](BF4)4], the IC50 in assay [1] is 430 ± 30 nM; in assay [2], 1390 ± 140 nM; in assay [3] it was 7780 ± 5670 nM. For the same molecule, the “SI NCI-H460 (selectivity index)” value in assay [1] is on record as 18.1. For the same molecule, the “SI OVCAR-8 (selectivity index)” value in assay [2] was determined as 5.6.

With `CC#N.CC#N.CC#N.CC#N.Cc1cc(N=Cc2cccc(Br)n2)c2c(c1)C1CC(O2)Oc2c(N=Cc3cccc(Br)n3)cc(C)cc21.Cc1cc(N=Cc2cccc(Br)n2)c2c(c1)C1CC(O2)Oc2c(N=Cc3cccc(Br)n3)cc(C)cc21.F[B-](F)(F)F.F[B-](F)(F)F.F[B-](F)(F)F.F[B-](F)(F)F.[Fe+2].[Fe+2]` [Compound 8, [Fe22_2(CH3CN)4](BF4)4], the “Effect on pUC18 DNA in the presence of H2O2 at the highest concentrations” value in assay [4] was “total DNA degradation”. Further, the half-inhibitory concentration (IC50) was 480 ± 130 nM in assay [1], 1270 ± 390 nM in assay [2] and 7000 ± 3430 nM in assay [3]. In assay [1], the “SI NCI-H460 (selectivity index)” value was determined as 14.6. In assay [2], the “SI OVCAR-8 (selectivity index)” value amounted to 5.5.

Regarding `CC#N.CC#N.CC#N.CC#N.Cc1cc(N=Cc2ccc(Br)cn2)c2c(c1)C1CC(O2)Oc2c(N=Cc3ccc(Br)cn3)cc(C)cc21.Cc1cc(N=Cc2ccc(Br)cn2)c2c(c1)C1CC(O2)Oc2c(N=Cc3ccc(Br)cn3)cc(C)cc21.F[B-](F)(F)F.F[B-](F)(F)F.F[B-](F)(F)F.F[B-](F)(F)F.[Fe+2].[Fe+2]` [Compound 9, [Fe23_2(CH3CN)4](BF4)4], in assay [1], the IC50 is 600 ± 40 nM and the “SI NCI-H460 (selectivity index)” value is recorded as 12.0. Also, in assay [2], the IC50 amounted to 1780 ± 160 nM and the “SI OVCAR-8 (selectivity index)” value is given as 4.1. In addition, the IC50 in assay [3] was determined as 7200 ± 3400 nM.

In the case of `CC#N.CC#N.CC#N.CC#N.COc1cccc(C=Nc2cc(C)cc3c2OC2CC3c3cc(C)cc(N=Cc4cccc(OC)n4)c3O2)n1.COc1cccc(C=Nc2cc(C)cc3c2OC2CC3c3cc(C)cc(N=Cc4cccc(OC)n4)c3O2)n1.F[B-](F)(F)F.F[B-](F)(F)F.F[B-](F)(F)F.F[B-](F)(F)F.[Fe+2].[Fe+2]` [Compound 11, [Fe25_2(CH3CN)4](BF4)4], the IC50 came out at 500 ± 100 nM in assay [1], 1400 ± 300 nM in assay [2] and 12000 ± 1440 nM in assay [3]. Besides, in assay [1], the “SI NCI-H460 (selectivity index)” value was 24.1. For the same molecule, the “SI OVCAR-8 (selectivity index)” value in assay [2] was 8.6.

As for `CC#N.CC#N.CC#N.CC#N.Cc1cc(N=Cc2ccc3ccccc3n2)c2c(c1)C1CC(O2)Oc2c(N=Cc3ccc4ccccc4n3)cc(C)cc21.Cc1cc(N=Cc2ccc3ccccc3n2)c2c(c1)C1CC(O2)Oc2c(N=Cc3ccc4ccccc4n3)cc(C)cc21.F[B-](F)(F)F.F[B-](F)(F)F.F[B-](F)(F)F.F[B-](F)(F)F.[Fe+2].[Fe+2]` [Compound 12, [Fe26_2(CH3CN)4](BF4)4], the “Effect on pUC18 DNA in the presence of H2O2 at the highest concentrations” value in assay [4] is listed as “total DNA degradation”. Besides, in assay [1], the IC50 worked out at 490 ± 80 nM and the “SI NCI-H460 (selectivity index)” value stood at 8.1. In assay [2], the IC50 is 1240 ± 270 nM and the “SI OVCAR-8 (selectivity index)” value is reported as 3.2. For the same molecule, it took 4050 ± 620 nM to reach half-maximal inhibition in assay [3] (IC50).
